Laboratory results published in patent US5583147A, “Amides for the treatment of atherosclerosis” (The Dupont Merck Pharmaceutical Company, priority 1994, dated 1996).

biological target: T1, Acyl-CoA: Cholesterol Acyltransferase (ACAT) (Rattus norvegicus, UniProt Q7TQM4); test: Inhibition of Acyl-CoA: Cholesterol Acyltransferase (ACAT) in Hepatic Microsomes (In Vitro Assay); type: biochemical, rat (male Sprague Dawley); details: 75 μM 14C-oleoyl-CoA, pH 7.4, 37° C., 10 min, read-out: ACAT Inhibitory Activity (In Vitro) (IC50)
T1 construct: centrifuged at 105,000×g for 1 hour to pellet the microsomes; from tissue; host or cells: liver microsomes of male Sprague Dawley rats
T1 sequence (Q7TQM4 1-524): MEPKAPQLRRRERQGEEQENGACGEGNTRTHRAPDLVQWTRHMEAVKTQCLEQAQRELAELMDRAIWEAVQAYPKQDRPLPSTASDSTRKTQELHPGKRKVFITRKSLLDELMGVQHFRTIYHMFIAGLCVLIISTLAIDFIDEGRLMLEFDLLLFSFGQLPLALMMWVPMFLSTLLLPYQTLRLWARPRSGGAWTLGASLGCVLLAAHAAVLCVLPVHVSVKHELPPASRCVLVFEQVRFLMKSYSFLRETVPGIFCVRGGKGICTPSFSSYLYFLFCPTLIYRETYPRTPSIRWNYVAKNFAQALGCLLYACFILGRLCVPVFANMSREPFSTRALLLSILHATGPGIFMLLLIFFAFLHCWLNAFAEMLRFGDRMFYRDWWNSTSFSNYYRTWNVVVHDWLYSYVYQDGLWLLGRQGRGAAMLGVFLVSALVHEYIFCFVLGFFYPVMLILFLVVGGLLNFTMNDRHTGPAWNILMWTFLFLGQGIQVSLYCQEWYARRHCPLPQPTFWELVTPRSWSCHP
Description: A. Assay of the Inhibition of Acyl-CoA: Cholesterol Acyltransferase (ACAT) in Hepatic Microsomes (In Vitro Assay)
The ability of the compounds to inhibit ACAT, the enzyme responsible for the intracellular synthesis of cholesteryl esters, was tested as follows. Male Sprague Dawley rats weighing 150-300 g, were fed rat chow ad libitum. The animals were fasted for twenty-four hours prior to being euthanized by CO2. The livers were perfused in situ with 50 ml of cold 0.25 sucrose, excised, and homogenized in three volumes of 0.1M phosphate buffer, pH 7.4, that contained 0.5 mM EDTA (ethylenediamine-tetraacetic acid), 1.0 mM glutathione, 0.25M sucrose and […] leupeptin. Microsomes were obtained by differential centrifugation; the supernatant from an initial spin at 15,000×g for 15 minutes was centrifuged at 105,000×g for 1 hour to pellet the microsomes. The microsomes were suspended in homogenization buffer, reisolated by centrifugation, and stored at -70° C. Microsomes were used within one month of preparation.
The control assay in a final volume of 200 μl consisted of 200 μg of microsomal protein, 75 μM ^14 C-oleoyl-CoA (10,000 dpm/nmol) in 0.1M phosphate, pH 7.4, that contained 1 mM glutathione. Compounds were added in 5 μl of DMSO (dimethyl sulfoxide) and additional controls were run with DMSO only. All components, except the oleoyl-CoA, were preincubated for 15 min. at 37° C. prior to the initiation of the reaction by the addition of oleoyl-CoA. The assay was terminated after 10 min by the addition of 4 ml of chloroform:methanol (2:1, v/v). 20,000 dpm of ^3 H-cholesteryl oleate and 10 μg of unlabeled cholesteryl oleate and oleic acid were added as an internal standard and carriers, respectively. After allowing 10 min. for lipid extraction, the samples were centrifuged at 1,000×g for 10 min to separate the solvent layers. The chloroform layer containing the neutral lipids was spotted onto a Baker SI250-Pa silica gel TLC plate and the plate developed using a hexane:diethyl ether:acetic acid (170:30:1) v/v/v) mobile phase. The lipids were visualized by their interaction with iodine vapor and the cholesteryl ester spot was scraped into a scintillation vial and counted. The specific activity of ACAT in the control incubation averaged 260 pmol/min/mg microsomal protein. The data obtained are expressed as the concentration at which ACAT activity is inhibited by 50% (IC50).

| Structure (SMILES) | IC50 [nM] |
| --- | --- |
| COc1ccc(CSC(C(=O)Nc2c(SC)cc(C)nc2SC)c2ccc(F)cc2)cc1 (stereo not drawn) [Example 154, N-[2,4-bis(methylthio)-6-methyl-3-pyridyl]-α-(4-methoxy-benzylthio)-4-fluoro-phenylacetamide] | < 1000 |
| CSc1cc(C)nc(SC)c1NC(=O)C(Sc1ccc(F)cc1)c1ccc(F)cc1 (stereo not drawn) [Example 166, N-[2,4-bis(methylthio)-6-methyl-3-pyridyl]-α-(4-fluoro-phenylthio)-4-fluoro-phenylacetamide] | < 1000 |
| COc1ccc(SC(C(=O)Nc2c(SC)cc(C)nc2SC)c2ccc(F)cc2)cc1 (stereo not drawn) [Example 167, N-[2,4-bis(methylthio)-6-methyl-3-pyridyl]-α-(4-methoxy-phenylthio)-4-fluoro-phenylacetamide] | < 1000 |
| CCCCCCSC(C(=O)Nc1c(SC)cc(C)nc1SC)c1ccc(Cl)c(Cl)c1 (stereo not drawn) [Example 176, N-[2,4-bis(methylthio)-6-methyl-3-pyridyl]-α-hexylthio-3,4-dichloro-phenylacetamide] | < 1000 |
| CSc1cc(C)nc(SC)c1NC(=O)C(SCc1ccccc1)c1ccc(Cl)c(Cl)c1 (stereo not drawn) [Example 180, N-[2,4-bis(methylthio)-6-methyl-3-pyridyl]-α-benzylthio-3,4-dichloro-phenylacetamide] | < 1000 |
| CSc1cc(C)nc(SC)c1NC(=O)C(SCc1ccc(F)cc1)c1ccc(Cl)c(Cl)c1 (stereo not drawn) [Example 181, N-[2,4-bis(methylthio)-6-methyl-3-pyridyl]-α-(4-fluoro-benzylthio)-3,4-dichloro-phenylacetamide] | < 1000 |
| COc1ccc(CSC(C(=O)Nc2c(SC)cc(C)nc2SC)c2ccc(Cl)c(Cl)c2)cc1 (stereo not drawn) [Example 182, N-[2,4-bis(methylthio)-6-methyl-3-pyridyl]-α-(4-methoxy-benzylthio)-3,4-dichloro-phenylacetamide] | < 1000 |
| CCCCCCSC(C(=O)Nc1c(SC)cc(C)nc1SC)c1ccc(F)cc1F (stereo not drawn) [Example 204, N-[2,4-bis(methylthio)-6-methyl-3-pyridyl]-α-hexylthio-2,4-difluoro-phenylacetamide] | < 1000 |
| COc1ccc(CSC(C(=O)Nc2c(SC)cc(C)nc2SC)c2ccc(F)cc2F)cc1 (stereo not drawn) [Example 210, N-[2,4-bis(methylthio)-6-methyl-3-pyridyl]-α-(4-methoxy-benzylthio)-2,4-difluoro-phenylacetamide] | < 1000 |
| CCCCCCSC(C(=O)Nc1c(SC)cc(C)nc1SC)c1ccc(OC)c(OC)c1 (stereo not drawn) [Example 232, N-[2,4-bis(methylthio)-6-methyl-3-pyridyl]-α-hexylthio-3,4-dimethoxy-phenylacetamide] | < 1000 |
| COc1ccc(C(SCc2ccccc2)C(=O)Nc2c(SC)cc(C)nc2SC)cc1OC (stereo not drawn) [Example 236, N-[2,4-bis(methylthio)-6-methyl-3-pyridyl]-α-benzylthio-3,4-dimethoxy-phenylacetamide] | < 1000 |
| COc1ccc(C(SCc2ccc(F)cc2)C(=O)Nc2c(SC)cc(C)nc2SC)cc1OC (stereo not drawn) [Example 237, N-[2,4-bis(methylthio)-6-methyl-3-pyridyl]-α-(4-fluoro-benzylthio)-3,4-dimethoxy-phenylacetamide] | < 1000 |
| CCCCCCSC(C(=O)Nc1c(SC)cc(C)nc1SC)c1ccc(OCCCC)cc1 (stereo not drawn) [Example 260, N-[2,4-bis(methylthio)-6-methyl-3-pyridyl]-α-hexylthio-4-butoxy-phenylacetamide] | < 1000 |
| CCCCOc1ccc(C(SCc2ccccc2)C(=O)Nc2c(SC)cc(C)nc2SC)cc1 (stereo not drawn) [Example 264, N-[2,4-bis(methylthio)-6-methyl-3-pyridyl]-α-benzylthio-4-butoxy-phenylacetamide] | < 1000 |
| CCCCCCSC(C(=O)Nc1c(SC)cc(C)nc1SC)c1ccc(Oc2ccccc2)cc1 (stereo not drawn) [Example 288, N-[2,4-bis(methylthio)-6-methyl-3-pyridyl]-α-hexylthio-4-phenoxy-phenylacetamide] | < 1000 |
| CSc1cc(C)nc(SC)c1NC(=O)C(SCc1ccccc1)c1ccc(Oc2ccccc2)cc1 (stereo not drawn) [Example 292, N-[2,4-bis(methylthio)-6-methyl-3-pyridyl]-α-benzylthio-4-phenoxy-phenylacetamide] | < 1000 |
| CSc1cc(C)nc(SC)c1NC(=O)C(SCc1ccc(Cl)cc1)c1ccc(Oc2ccccc2)cc1 (stereo not drawn) [Example 295, N-[2,4-bis(methylthio)-6-methyl-3-pyridyl]-α-(4-chloro-benzylthio)-4-phenoxy-phenylacetamide] | < 1000 |
| CCCCCCSC(C(=O)Nc1c(SC)cc(C)nc1SC)c1cccc(Oc2ccccc2)c1 (stereo not drawn) [Example 316, N-[2,4-bis(methylthio)-6-methyl-3-pyridyl]-α-hexylthio-3-phenoxy-phenylacetamide] | < 1000 |
| CCCCCCSC(C(=O)Nc1c(SC)cc(C)nc1SC)c1cccc(Oc2ccc(Br)cc2)c1 (stereo not drawn) [Example 317, N-[2,4-bis(methylthio)-6-methyl-3-pyridyl]-α-hexylthio-3-(4'-bromophenoxy)-phenylacetamide] | < 1000 |
| CSc1cc(C)nc(SC)c1NC(=O)C(SCc1ccccc1)c1cccc(Oc2ccccc2)c1 (stereo not drawn) [Example 321, N-[2,4-bis(methylthio)-6-methyl-3-pyridyl]-α-benzylthio-3-phenoxy-phenylacetamide] | < 1000 |
| CSc1cc(C)nc(SC)c1NC(=O)C(SCc1ccccc1)c1cccc(Oc2ccc(Br)cc2)c1 (stereo not drawn) [Example 322, N-[2,4-bis(methylthio)-6-methyl-3-pyridyl]-α-benzylthio-3-(4'-bromophenoxy)-phenylacetamide] | < 1000 |
| CSc1cc(C)nc(SC)c1NC(=O)C(SCc1ccc(Cl)cc1)c1cccc(Oc2ccccc2)c1 (stereo not drawn) [Example 325, N-[2,4-bis(methylthio)-6-methyl-3-pyridyl]-α-(4-chloro-benzylthio)-3-phenoxy-phenylacetamide] | < 1000 |
| CSc1cc(C)nc(SC)c1NC(=O)C(SCc1ccc(Cl)cc1)c1cccc(Oc2ccc(Br)cc2)c1 (stereo not drawn) [Example 326, N-[2,4-bis(methylthio)-6-methyl-3-pyridyl]-α-(4-chloro-benzylthio)-3-(4'-bromophenoxy)-phenylacetamide] | < 1000 |
| CCCCCCSC(C(=O)Nc1c(SC)cc(C)nc1SC)c1ccc(C(F)(F)F)cc1 (stereo not drawn) [Example 375, N-[2,4-bis(methylthio)-6-methyl-3-pyridyl]-α-hexylthio-4-trifluoromethyl-phenylacetamide] | < 1000 |
| CSc1cc(C)nc(SC)c1NC(=O)C(SCc1ccccc1)c1ccc(C(F)(F)F)cc1 (stereo not drawn) [Example 379, N-[2,4-bis(methylthio)-6-methyl-3-pyridyl]-α-benzylthio-4-trifluoromethyl-phenylacetamide] | < 1000 |
| CSc1cc(C)nc(SC)c1NC(=O)C(SCc1ccc(F)cc1)c1ccc(C(F)(F)F)cc1 (stereo not drawn) [Example 380, N-[2,4-bis(methylthio)-6-methyl-3-pyridyl]-α-(4-fluoro-benzylthio)-4-trifluoromethyl-phenylacetamide] | < 1000 |
| COc1ccc(CSC(C(=O)Nc2c(SC)cc(C)nc2SC)c2ccc(C(F)(F)F)cc2)cc1 (stereo not drawn) [Example 381, N-[2,4-bis(methylthio)-6-methyl-3-pyridyl]-α-(4-methoxy-benzylthio)-4-trifluoromethyl-phenylacetamide] | < 1000 |
| CSc1cc(C)nc(SC)c1NC(=O)C(Sc1ccc(F)cc1)c1ccc(C(F)(F)F)cc1 (stereo not drawn) [Example 393, N-[2,4-bis(methylthio)-6-methyl-3-pyridyl]-α-(4-fluoro-phenylthio)-4-trifluoromethyl-phenylacetamide] | < 1000 |
| COc1ccc(SC(C(=O)Nc2c(SC)cc(C)nc2SC)c2ccc(C(F)(F)F)cc2)cc1 (stereo not drawn) [Example 394, N-[2,4-bis(methylthio)-6-methyl-3-pyridyl]-α-(4-methoxy-phenylthio)-4-trifluoromethyl-phenylacetamide] | < 1000 |
